“Also recorded” adds a separate entry of the source. No end group written: not given here. *: point of attachment. Biotin = O=C1N[C@H]2[C@H](CS[C@H]2CCCCC(=O)*)N1
System: insulin
Assay: electrochemical impedance spectroscopy
Assay type: binding
Settings: two experimental cases and one scrambled sequence; different insulin concentrations; PBS

Substance: EACVESGGGENLYFQK(Biotin) [scrambled sequence]
- raw phase change (Zphz) across different frequencies: The largest change across different frequencies is observed in the scrambled sequence negative control compared to the other two experimental cases; also recorded: The largest change across different frequencies was observed in (C)
